Series [1] can be described thus: Solid-state change of Rifaximin α form on wet granulation with purified water. The format is physicochemical. The settings on record: purified water as binding agent.
The nature of series [2]: Solid-state stability of the α/β ratio after dry granulation and tableting, DRX (powder). Type of series: physicochemical. The settings on record: tablets before coating, ground in a mortar.
For series [3] the following is noted: literature studies (Cellai et al. 1983; Viscomi et al. 2008); cited from earlier work.

For `CO[C@H]1/C=C/O[C@@]2(C)Oc3c(C)c(O)c4c(O)c(c5c(nc6cc(C)ccn65)c4c3C2=O)NC(=O)/C(C)=C\C=C\[C@H](C)[C@H](O)[C@@H](C)[C@@H](O)[C@@H](C)[C@H](OC(C)=O)[C@@H]1C` [Rifaximin α form, Rifaximin], the “Amount of Rifaximin β form afforded by wet granulation” value in series [1] is listed as under 50%.
Regarding “Rifaximin [Rifaximin α/β polymorphic mixture 88/12]”, the “Relative ratio between the α/β polymorphic form after dry granulation and tableting” value in series [2] is on record as “stable”.
As to Rifaximin [δ], in series [3], the “Absorption from the intestine” value is recorded as “could be significantly absorbed”.

These data come from patent publication US11739099B2 (CURIA IP HOLDINGS, LLC, priority 2014, dated 2023).
